The values below come from patent US20100016598A1 (WYETH, priority 2008, published 2010).

Test [1] has as its target T1, alpha3 (ganglionic) nACh receptors (Homo sapiens, UniProt P30926+P32297).
T1 construct: using the native SH-SY5Y cell line; endogenous in cells; host or cells: SH-SY5Y
Kind of test: calcium-monitoring FLIPR selectivity assay using the native SH-SY5Y cell line. The format is cell-based. The note with it: read-out: Alpha 3 EC50. An excerpt:
Functional FLIPR assays were developed in order to test the selectivity of compounds against the alpha1 (muscular) and alpha3 (ganglionic) nACh receptors and the structurally related 5-HT3 receptor. […] In order to test selectivity against the 5-HT3 receptor, a recombinant cell line was constructed expressing the human 5-HT3A receptor in HEK 293 cells and a calcium-monitoring FLIPR assay employed.

The target of test [2] is T2, alpha7 nicotinic acetylcholine receptor (Rattus norvegicus, UniProt Q05941).
T2 construct: expressed in transfected cells
The experiment in a line: functional FLIPR assay, alpha7 nAChR stably expressed in GH4C1 cells. The note with it: GH4C1 cell line expressing the alpha7 nAChR; concentration-response curves; read-out: Alpha 7 EC50. The format is cell-based.
From the text: Rat GH4C1 cells were then transfected with the rat receptor, cloned and analyzed for functional alpha7 nicotinic receptor expression employing a FLIPR assay to measure changes in intracellular calcium concentrations.
The FLIPR system allows the measurements of real time Ca^2+-concentration changes in living cells using a Ca^2+ sensitive fluorescence dye (such as Fluo4). This instrument enables the screening for agonists and antagonists for alpha 7 nAChR channels stably expressed in GH4C1 cells.
GH4C1 cells stably transfected with rat-alpha7-nAChR (see above) were used. These cells are poorly adherent and therefore pretreatment of flasks and plates with poly-D-lysine was carried out. Cells are grown in 150 cm^2 T-flasks, filled with 30ml of medium at 37° C. and 5% CO2.
EC50 and IC50 values were calculated using the IDBS XLfit4.1 software package employing a sigmoidal concentration-response (variable slope) equation:
Certain compounds of the present disclosure were tested using the functional FLIPR primary screening assay employing the stable recombinant GH4C1 cell line expressing the alpha7 nAChR. Hits identified were validated further by generation of concentration-response curves.

T1 sequence (P32297 32-505): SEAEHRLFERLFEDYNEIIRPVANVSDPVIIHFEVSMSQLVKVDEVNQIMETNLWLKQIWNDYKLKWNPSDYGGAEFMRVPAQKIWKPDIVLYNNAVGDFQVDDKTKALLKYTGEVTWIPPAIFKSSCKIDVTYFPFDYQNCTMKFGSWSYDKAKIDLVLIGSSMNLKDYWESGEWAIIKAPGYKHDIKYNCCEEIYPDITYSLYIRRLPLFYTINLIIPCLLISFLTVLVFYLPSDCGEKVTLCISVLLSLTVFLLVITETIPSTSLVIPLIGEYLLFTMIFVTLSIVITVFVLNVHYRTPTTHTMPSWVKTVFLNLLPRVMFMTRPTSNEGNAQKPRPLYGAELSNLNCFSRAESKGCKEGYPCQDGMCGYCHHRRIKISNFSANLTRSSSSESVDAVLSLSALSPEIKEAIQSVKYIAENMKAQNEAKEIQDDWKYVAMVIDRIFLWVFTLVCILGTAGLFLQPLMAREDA
T1 sequence (P30926 22-498): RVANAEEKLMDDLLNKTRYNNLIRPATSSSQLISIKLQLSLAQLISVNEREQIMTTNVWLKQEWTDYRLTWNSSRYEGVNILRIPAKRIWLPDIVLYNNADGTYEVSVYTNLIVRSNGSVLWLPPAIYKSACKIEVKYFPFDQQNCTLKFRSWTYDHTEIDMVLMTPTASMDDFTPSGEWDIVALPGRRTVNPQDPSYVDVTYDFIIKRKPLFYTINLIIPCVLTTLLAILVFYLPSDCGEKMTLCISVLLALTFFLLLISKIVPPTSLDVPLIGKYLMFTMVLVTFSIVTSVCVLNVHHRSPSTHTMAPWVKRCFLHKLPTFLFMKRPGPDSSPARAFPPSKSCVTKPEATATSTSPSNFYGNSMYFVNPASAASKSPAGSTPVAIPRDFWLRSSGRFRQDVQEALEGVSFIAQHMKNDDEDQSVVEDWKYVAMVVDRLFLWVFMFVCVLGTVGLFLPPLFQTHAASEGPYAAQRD
T2 sequence (Q05941 23-502): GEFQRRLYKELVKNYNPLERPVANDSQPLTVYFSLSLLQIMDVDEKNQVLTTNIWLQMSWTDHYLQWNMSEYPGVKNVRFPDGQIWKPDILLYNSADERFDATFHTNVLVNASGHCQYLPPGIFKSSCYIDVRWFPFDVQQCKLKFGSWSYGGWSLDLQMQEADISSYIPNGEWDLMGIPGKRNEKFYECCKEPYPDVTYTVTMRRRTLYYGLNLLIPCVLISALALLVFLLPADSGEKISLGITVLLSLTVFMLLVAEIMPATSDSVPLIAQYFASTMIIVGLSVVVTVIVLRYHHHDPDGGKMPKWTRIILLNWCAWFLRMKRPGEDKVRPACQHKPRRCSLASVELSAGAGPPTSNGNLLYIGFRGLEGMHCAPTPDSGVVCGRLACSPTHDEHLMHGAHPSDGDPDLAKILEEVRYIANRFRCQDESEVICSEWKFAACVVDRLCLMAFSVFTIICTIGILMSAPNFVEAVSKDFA

As for `COc1ncccc1-c1ccc(NC(=O)NCCCCN2CCCCC2)cc1`, the figures for the EC50 in test [1] and in test [2] were 5670 nM and 60 nM, respectively.

As a reminder, the EC50 is the midpoint of the concentration-response curve.
